The record followed here is US10328018B2, “Cosmetic use of the essential oil of Laserpitium siler L. against the signs of aging of the skin and as a skin antioxidant” (L'OREAL, priority 2012, dated 2019).

The subject of one test is MMP-1. Description: Abundance of MMP-1 secreted in culture medium of NHDF dermal fibroblasts (pro-MMP-1 ELISA). Format: cell-based, human. The settings on record: 2.5 ng/ml, 72 h, control without treatment=100%. The protocol: The study consists in evaluating, on NHDF (Normal Human Dermal Fibroblasts) dermal fibroblasts, the effects of the essential oil of Laserpitium Siler L. of example 1, at two concentrations, over the following parameters: • the synthesis of type I procollagen by ELISA (CICP, Cross-linked C-telopeptides of Type I collagen) after 72 h of contact, and • the abundance of MMP-1 secreted in the culture medium after 72 h of contact.
The study was carried out on NHDF human dermal fibroblasts (ATCC, CRL-2522, origin: foreskin) cultured in monolayer in a medium of DMEM (Invitrogen, 31885-049) and antibiotics (penicillin/streptomycin, Invitrogen, 15140-122), and cultured in serum-free medium for studies on type I collagen and on MMP-1.
The fibroblasts were seeded in 24-well plates, 24 h before the treatment with the test and reference elements.
For the measurement of the synthesis/secretion of type I procollagen and for the quantification of MMP-1, the test elements and also the reference elements (TGF-β1 (Transforming Growth Factor-β1) for MMP-1 and vitamin C for CICP) were applied for 72 h in the absence of serum. […]
The quantification of MMP-1 was carried out with a specific kit (Human pro-MMP-1 Quantikine ELISA, R&D System), according to the instructions given by the supplier.

Another test deals with Collagen IV. The experiment in a line: Production of collagen IV by normal human keratinocytes (in situ immunolabeling, image analysis). Format: cell-based. The following applies: TGF-β at 10 ng/ml, NHEK, 72 hours. The protocol:
The purpose of this study was to evaluate the effects of the essential oil of Laserpitium Siler L. according to example 1 on the dermo-epidermal junction marker (Coll. IV) modulated during aging by immunohistochemistry techniques.
• Culture medium: Keratinocyte-SFM supplemented with: • Epidermal Growth Factor (EGF) 0.25 ng/ml • Pituitary extract (PE) 25 μg/ml • Gentamicin 25 μg/ml • Test medium: Keratinocyte-SFM supplemented with: • Gentamicin 25 μg/ml
Normal human keratinocytes (NHEK—Ref: K341) were seeded and cultured in a culture medium (Keratinocyte-SFM for 24 hours). The culture medium was replaced by the test medium containing, or not containing (control), the test compounds or reference compounds (TGF-β at 10 ng/ml), then the cells were incubated for 72 hours at 37° C., 5% CO2.
After incubation, the culture medium was removed and the cells were rinsed, fixed and permeabilized.
The cells were then labeled with the primary antibody targeted against the protein of interest (Collagen IV).
The relative quantification was carried out by image analysis after in situ immuno labeling.
The image acquisition was carried out with a high-resolution imaging system: INCell Analyser™ 1000.

For another test, the system named is type I procollagen. Description: Synthesis/secretion of type I procollagen by ELISA (CICP) on NHDF dermal fibroblasts. Format: cell-based, human. The settings on record: 100 μM, 72 h, control without treatment=100%. As for the experimental part:
The study consists in evaluating, on NHDF (Normal Human Dermal Fibroblasts) dermal fibroblasts, the effects of the essential oil of […]. of example 1, at two concentrations, over the following parameters: • the synthesis of type I procollagen by ELISA (CICP, Cross-linked C-telopeptides of Type I collagen) after 72 h of contact, and • the abundance of MMP-1 secreted in the culture medium after 72 h of contact. The study was carried out on NHDF human dermal fibroblasts (ATCC, CRL-2522, origin: foreskin) cultured in monolayer in a medium of DMEM (Invitrogen, 31885-049) and antibiotics (penicillin/streptomycin, Invitrogen, 15140-122), and cultured in serum-free medium for studies on type I collagen and on MMP-1. The fibroblasts were seeded in 24-well plates, 24 h before the treatment with the test and reference elements. For the measurement of the synthesis/secretion of type I procollagen and for the quantification of MMP-1, the test elements and also the reference elements (TGF-β1 (Transforming Growth Factor-β1) for MMP-1 and vitamin C for CICP) were applied for 72 h in the absence of serum. The supernatants of the cultures were harvested after 72 h of treatment with the active agents and the reference element (in this case, vitamin C at 1000 μM). These were frozen at -20° C. until the day of the analysis. […]
On the technique in general: An ELISA detects its analyte on a solid surface through an enzyme-linked reagent.

Marks after values point to notes of the source that are not given here.

For the molecule “TGF-β1: Transforming Growth Factor-β1, reference element for MMP-1”, in the test with MMP-1, the “MMP-1 (protein abundance)” value is listed as 47%***. With “TGF-β: positive control / reference compound at 10 ng/ml in the collagen IV test”, in the test with Collagen IV, the “increase in expression of collagen IV compared to the control” value is on record as 594%.

`O=C1O[C@H]([C@@H](O)CO)C(O)=C1O` [Vitamin C]: the “CICP (protein abundance)” value with type I procollagen stood at 160%***.
